Experimental data taken from publication PMC8272215 (2021).

Experiments:
[1] = system: poly A-poly U (RNA, polymer) A/U; experiment: fluorescent indicator displacement (EB); settings: Na+ (50 mM sodium cacodylate); pH 7.4; ethidium bromide displaced; polynucleotide 3-4 × 10^-5 M
[2] = system: poly A-poly U (RNA, polymer) A/U; experiment: UV melting at 260 nm; settings: Na+ (50 mM sodium cacodylate); pH 7.4; r = [ligand]/[polynucleotide] = 0.05; caption says ctDNA, text b32 says poly A-poly U; per base
[3] = system: poly A-poly U (RNA, polymer) A/U; experiment: fluorescent indicator displacement (DAPI); settings: Na+ (50 mM sodium cacodylate); pH 7.4; DAPI displaced; polynucleotide 1-2 × 10^-5 M

Row | Compound | IC50 [1] | ΔTm [2] [°C] | IC50 [3]
1 | NCCN(CCN)CCCNCCN1CCNCc2cccc(n2)CNCC1 | 0.63 [ligand]/[polynucleotide] ratio (dimensionless) | 21.3 | 0.85 [ligand]/[polynucleotide] ratio (dimensionless)
2 | c1cc2nc(c1)CNCCN(CCCNCCN1CCNCc3cccc(n3)CNCC1)CCNC2 | 0.86 [ligand]/[polynucleotide] ratio (dimensionless) | 17.1 | 0.45 [ligand]/[polynucleotide] ratio (dimensionless)
